Patent US20110262508A1, “ANTIMICROBIAL COMPOSITIONS, FORMULATIONS AND USES THEREOF” (priority 2007, published 2011)
Where two headings read alike, the source gives them in different places. Peptide text beside a SMILES is read from it. * marks the point of attachment. Biotin = O=C1N[C@H]2[C@H](CS[C@H]2CCCCC(=O)*)N1

Assays:
[1] = Cytotoxicity against Jurkat cells (CellTiter Blue); assay type: cell-based, human; details: human
Protocol: (§1) The cytotoxicities of selected peptides against human T-lymphocytes, in particular Jurkat cells, was determined by growing 100 uL Jurkat cells in RPMI (approx. 5×10^5 cells/ml density) overnight at 37° C. under 5% CO2 atmosphere, in microtiter plate wells, in the presence and absence of peptides. Control reactions either lacked peptide (negative cytotoxicity control), or contained a buffer to completely lyse Jurkat cells (positive cytotoxicity control). The viabilities of cells were then determined by addition of 20 uL CellTiter Blue dye (Promega) to each well, and incubation of cells for a further 3 hrs at 37° C. Fluorescence values were measured for 1 sec at 540 nm/615 nm, and expressed relative to fluorescence values for negative and positive cytotoxicity control samples. Comparison with a fully lysed control allowed the calculation of a percentage killing for each peptide concentration. The MCC10 value was calculated as the minimum peptide concentration required to induce 10% cytotoxicity.

Jurkat cells = assay: Cytotoxicity against Jurkat cells (CellTiter Blue); assay type: cell-based, human
Protocol: as §1

human RBC = assay: Hemolysis of RBC; assay type: cell-based
Protocol: Varying amounts of peptide were incubated with the washed RBC for one hour at room temperature. Intact cells were pelleted by gentle centrifugation, and hemolysis of each sample was determined by absorption measurement at 450 nm. A positive control sample consisted of RBC lysed by the addition of 0.1% Triton, for which hemolysis was also determined by absorption measurement at 450 nm. Percentages of lysed RBC incubated with peptide were then calculated by the ratio of absorbances at 450 nm for the sample relative to the absorbance at 450 nm of the positive control sample. The MHC10 value was calculated as the minimum peptide concentration to induce 10% cell lysis.

A. baumannii = assay type: cell-based
Method in brief: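 Laboratory strains and 50 clinical isolates of A. baumannii were tested by CLSI broth microdilution, with serially diluted peptide (0.1-64 μg) and about 1×10^5 C.F.U. per well, incubated aerobically overnight at 35±2° C. MIC was read visually. MBC came from subculturing clear wells, as ≥99.9% inoculum reduction.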

[2] = test system: A. baumannii ATCC 19606, Acinetobacter spp. ATCC 17903, Acinetobacter spp. ATCC 19004, E. coli BL21, S. aureus, S. typhimurium AroA, P. aeruginosa, P. …; assay: Antibacterial spectrum over the serial dilution panel (Table 6); assay type: cell-based; details: summary of Table 6
Method in brief: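 Peptides at about 5–10 μM were added to liquid media freshly inoculated with each bacterial strain and shaken 5-6 h at 37° C. Growth read as absorbance at 595 nm; control cultures contained 0.1% acetonitrile.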

[3] = test system: S. typhimurium strain AroA; assay type: cell-based
Protocol: Synthetic peptides were tested for their ability to inhibit bacterial growth in liquid culture. […] 19606, Acinetobacter spp. ATCC 17903, Acinetobacter spp. ATCC 19004, Escherichia coli strain BL21, S. aureus, S. typhimurium strain AroA, P. aeruginosa or P. pneumotropica. After 5-6 hours of shaking at 37° C., growth was measured as absorbance at 595 nm. As a control, cultures were grown in the presence of 0.1% acetonitrile (i.e., the concentration present in 10 μM peptide).

SMILES | cytotoxicity at 12.5 μM [1] | cytotoxicity at 25 μM [1] | cytotoxicity at 50 μM [1] | MCC10 (Jurkat cells) | MHC10 (human RBC) | MIC (μM) for non-amidated Peptide (A. baumannii) | selectively inhibited growth of Acinetobacter spp. ATCC 19004, and S. aureus [2] | % inhibition of bacterial growth by peptide ([3]; 5 μM peptide) | % inhibition of bacterial growth by peptide ([3]; 10 μM peptide) | % inhibition of bacterial growth by peptide ([3]; 15 μM peptide) | % inhibition of bacterial growth by peptide ([3]; 20 μM peptide) | selectively inhibited growth of A. baumannii ATCC Accession No. 19606, Acinetobacter spp. ATCC 17903, Acinetobacter spp. ATCC 19004, and S. aureus [2] | selectively inhibited growth of Acinetobacter spp. ATCC 19004 [2] | % inhibition of bacterial growth by peptide ([3]; 12.5 μM peptide) | % inhibition of bacterial growth by peptide ([3]; 17.5 μM peptide)
CC[C@H](C)[C@H](NC(=O)[C@H](Cc1ccccc1)NC(=O)[C@H](CC(C)C)NC(=O)[C@H](CCC(N)=O)NC(=O)[C@H](CCCNC(=N)N)NC(=O)[C@H](Cc1ccccc1)NC(=O)[C@H](Cc1ccc(O)cc1)NC(=O)[C@H](CC(C)C)NC(=O)[C@H](Cc1c[nH]c2ccccc12)NC(=O)[C@H](Cc1ccccc1)NC(=O)[C@H](CCCNC(=N)N)NC(=O)[C@H](CCCNC(=N)N)NC(=O)[C@H](CO)NC(=O)[C@H](CC(=O)O)NC(=O)CCCC[C@@H]1SC[C@@H]2NC(=O)N[C@@H]21)C(=O)N[C@@H](Cc1c[nH]cn1)C(=O)N[C@@H](CC(N)=O)C(=O)N1CCC[C@H]1C(=O)N[C@@H](CCCCN)C(=O)N[C@H](C(=O)N1CCC[C@H]1C(=O)N[C@H](C(=O)N[C@H](C(=O)N1CCC[C@H]1C(=O)O)[C@@H](C)O)[C@@H](C)CC)[C@@H](C)O [Ac476] (Biotin-DSRRFWLYFRQLFIHNPKTPITP-OH) | 12% | 18% | 44% | 10 µM | 50 µM | 5 µM | – | – | – | – | – | – | – | – | –
CC(C)C[C@H](NC(=O)[C@H](CC(=O)O)NC(=O)[C@H](CO)NC(=O)CCCC[C@@H]1SC[C@@H]2NC(=O)N[C@@H]21)C(=O)NCC(=O)N[C@@H](CCCCN)C(=O)N[C@@H](CO)C(=O)NCC(=O)N[C@@H](C)C(=O)NCC(=O)N[C@@H](Cc1c[nH]c2ccccc12)C(=O)N[C@@H](CCCNC(=N)N)C(=O)N[C@@H](Cc1c[nH]c2ccccc12)C(=O)N[C@@H](CCCNC(=N)N)C(=O)N[C@@H](C)C(=O)N[C@@H](CS)C(=O)N[C@@H](CC(N)=O)C(=O)N[C@H](C(=O)N[C@@H](CC(C)C)C(=O)N[C@@H](CO)C(=O)N[C@@H](CCCCN)C(=O)N[C@@H](CS)C(=O)N[C@@H](CCCNC(=N)N)C(=O)NCC(=O)O)[C@@H](C)O [Ac378] (Biotin-SDLGKSGAGWRWRACNTLSKCRG-OH; N-terminus and C-terminus assumed) | 0% | 0% | 35% | 30 µM | 50 µM | 12.5 µM | – | – | – | – | – | – | – | – | –
CC[C@H](C)[C@H](NC(=O)[C@H](CCC(N)=O)NC(=O)[C@H](CCCNC(=N)N)NC(=O)[C@@H](NC(=O)[C@@H](NC(=O)[C@@H]1CCCN1C(=O)[C@@H]1CCCN1C(=O)[C@H](CCSC)NC(=O)[C@H](CCCNC(=N)N)NC(=O)[C@H](CC(N)=O)NC(=O)[C@@H](NC(=O)CNC(=O)[C@H](Cc1c[nH]c2ccccc12)NC(=O)CCCC[C@@H]1SC[C@@H]2NC(=O)N[C@@H]21)C(C)C)C(C)C)C(C)C)C(=O)N[C@@H](CC(C)C)C(=O)N[C@@H](CCCNC(=N)N)C(=O)N[C@@H](CO)C(=O)N[C@@H](CCC(=O)O)C(=O)N[C@@H](Cc1c[nH]c2ccccc12)C(=O)N[C@@H](CCCNC(=N)N)C(=O)N[C@@H](CC(N)=O)C(=O)N[C@@H](Cc1c[nH]c2ccccc12)C(=O)N[C@@H](CCCNC(=N)N)C(=O)N[C@@H](CCCCN)C(=O)O [Ac436] (Biotin-WGVNRMPPVVRQILRSEWRNWRK-OH) | 6% | 10% | 32% | 25 µM | 75 µM | 10 µM | – | – | – | – | – | – | – | – | –
C[C@H](NC(=O)[C@@H](NC(=O)CNC(=O)[C@@H]1CCCN1C(=O)[C@H](Cc1c[nH]cn1)NC(=O)[C@H](CCCNC(=N)N)NC(=O)[C@H](Cc1c[nH]cn1)NC(=O)[C@H](CCCNC(=N)N)NC(=O)[C@H](Cc1c[nH]cn1)NC(=O)[C@H](CCCNC(=N)N)NC(=O)[C@H](CCCNC(=N)N)NC(=O)[C@H](Cc1c[nH]cn1)NC(=O)[C@H](CCCNC(=N)N)NC(=O)[C@H](Cc1c[nH]cn1)NC(=O)[C@H](Cc1c[nH]cn1)NC(=O)[C@@H]1CCCN1C(=O)[C@H](Cc1c[nH]cn1)NC(=O)[C@@H]1CCCN1C(=O)[C@H](CCC(N)=O)NC(=O)[C@H](CCC(N)=O)NC(=O)[C@@H]1CCCN1C(=O)[C@@H](NC(=O)[C@@H](N)CC(N)=O)[C@@H](C)O)[C@@H](C)O)C(=O)O [Ac47] (H-NTPQQPHPHHRHRRHRHRHPGTA-OH; N-terminus and C-terminus assumed) | – | – | – | – | – | – | selectively inhibited growth | 13% | 25% | 29% | 50% | – | – | – | –
CC[C@H](C)[C@H](NC(=O)[C@H](CS)NC(=O)[C@H](CCCCN)NC(=O)[C@H](CC(C)C)NC(=O)[C@H](Cc1ccccc1)NC(=O)[C@H](CC(=O)O)NC(=O)[C@H](CC(C)C)NC(=O)[C@H](CCCNC(=N)N)NC(=O)[C@H](CC(N)=O)NC(=O)[C@H](Cc1ccccc1)NC(=O)CNC(=O)[C@@H](NC(=O)[C@@H](NC(=O)[C@H](Cc1c[nH]cn1)NC(=O)[C@H](CC(N)=O)NC(=O)[C@@H](NC(=O)[C@@H](NC(=O)[C@H](Cc1c[nH]cn1)NC(=O)[C@H](Cc1ccccc1)NC(=O)[C@H](CO)NC(=O)[C@@H](NC(=O)[C@@H](N)Cc1ccccc1)C(C)C)[C@@H](C)O)[C@@H](C)O)C(C)C)[C@@H](C)CC)C(=O)N[C@@H](CO)C(=O)O [Ac3] (H-FVSFHTTNHVIGFNRLDFLKCIS-OH; N-terminus and C-terminus assumed) | – | – | – | – | – | – | – | 2% | 2% | 6% | 18% | selectively inhibited growth | – | – | –
CC[C@H](C)[C@H](NC(=O)[C@H](Cc1ccccc1)NC(=O)[C@H](CCC(N)=O)NC(=O)[C@H](CO)NC(=O)[C@H](Cc1ccccc1)NC(=O)[C@H](Cc1c[nH]cn1)NC(=O)[C@H](CCCNC(=N)N)NC(=O)[C@H](Cc1c[nH]cn1)NC(=O)[C@@H](NC(=O)[C@H](CCCNC(=N)N)NC(=O)[C@H](CC(C)C)NC(=O)CNC(=O)[C@H](CC(C)C)NC(=O)[C@H](CC(=O)O)NC(=O)[C@H](CCCNC(=N)N)NC(=O)[C@@H](NC(=O)[C@H](CCC(N)=O)NC(=O)[C@H](CCCNC(=N)N)NC(=O)[C@@H](N)CCCNC(=N)N)C(C)C)C(C)C)C(=O)N[C@@H](CC(N)=O)C(=O)N[C@@H](CCCNC(=N)N)C(=O)N[C@@H](CO)C(=O)NCC(=O)O [Ac173] (H-RRQVRDLGLRVHRHFSQFINRSG-OH; N-terminus and C-terminus assumed) | – | – | – | – | – | – | – | – | – | 0% | 0% | – | selectively inhibited growth | 0% | 0%
